Test results from ChEMBL document CHEMBL4359821, “Identify liver X receptor β modulator building blocks by developing a fluorescence polarization-based competition assay” (Eur J Med Chem, 2019).

Experiments:
[1] = biological target: T1, Oxysterols receptor LXR-beta (Homo sapiens, UniProt P55055); assay: Binding affinity to recombinant human LXRbeta-LBD expressed in Escherichia coli BL21 (DE3) assessed as inhibitory constant incubated for 30 mins by fluorescence polarization binding assay
[2] = biological target: T1, Oxysterols receptor LXR-beta; assay: Agonist activity at recombinant human LXRbeta-LBD expressed in Escherichia coli BL21 (DE3) assessed as peptide D22 recruitment fluorescence polarization binding assay
[3] = biological target: T1, Oxysterols receptor LXR-beta; assay: Binding affinity to recombinant human LXRbeta-LBD expressed in Escherichia coli BL21 (DE3) assessed as dissociation constant incubated for 30 mins by fluorescence polarization binding assay

T1 sequence (P55055 whole entry, the tested form may be a part): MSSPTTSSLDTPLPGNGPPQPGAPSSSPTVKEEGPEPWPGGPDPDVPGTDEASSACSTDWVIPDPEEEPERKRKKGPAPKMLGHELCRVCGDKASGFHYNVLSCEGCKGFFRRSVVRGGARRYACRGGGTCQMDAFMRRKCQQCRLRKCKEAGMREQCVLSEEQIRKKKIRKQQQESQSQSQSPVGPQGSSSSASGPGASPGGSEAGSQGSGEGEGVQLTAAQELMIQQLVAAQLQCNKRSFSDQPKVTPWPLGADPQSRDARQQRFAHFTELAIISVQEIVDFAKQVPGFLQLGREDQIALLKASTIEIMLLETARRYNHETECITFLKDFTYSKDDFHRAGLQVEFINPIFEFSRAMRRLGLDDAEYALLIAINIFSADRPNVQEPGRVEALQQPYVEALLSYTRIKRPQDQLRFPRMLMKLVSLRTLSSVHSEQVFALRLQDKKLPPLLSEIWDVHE

Row | SMILES | Ki [1] [µM] | EC50 [2] [µM] | Kd [3] [µM]
1 | CC(=O)c1c(C)ccc2ccccc12 | 153 |  | 
2 | Oc1cccc(Cl)c1 | 184 | 519 | 
3 | N#CC[C@H](C1CCCC1)n1cc(-c2ncnc3[nH]ccc23)cn1 [RUXOLITINIB] | 45 |  | 
4 | Fc1ccc(-c2c3cccc(C(F)(F)F)c3nn2Cc2ccc(F)cc2Cl)cc1 [LXR-623] | 0.0142 |  | 
5 | O=C(O)Cc1cccc(OCCCN(Cc2cccc(C(F)(F)F)c2Cl)CC(c2ccccc2)c2ccccc2)c1 | 0.0022 | 0.289 | 
6 | Oc1ccc(Cl)cc1 [PARACHLOROPHENOL] | 169 | 514 | 
7 | O=C1Nc2ccc(Br)cc2CO1 | > 500 |  | 
8 | CCOC(=O)c1cn2nc[nH]c(=O)c2c1C(C)C | 140 | 19 | 
9 | CC(C)(C)OC(=O)N1Cc2cn[nH]c2C1 | 225 |  | 
10 | COC(=O)c1ccc2cc[nH]c2c1 | 302 |  | 
11 | Brc1nn(C2CCCCO2)c2ncccc12 (stereo unspecified) | 209 |  | 
12 | COc1ccc(OC)c(Cl)c1 | 476 | 1030 | 
13 | CC(C)[C@@H]1CN(c2ccc(CO)c(S(C)(=O)=O)c2)CCN1c1ncc(COC(=O)CCCCCNC(=S)Nc2ccc3c(c2)C(=O)OC32c3ccc(O)cc3Oc3cc(O)ccc32)c(C(F)(F)F)n1 |  |  | 0.0489
14 | CCOC(=O)c1ccc(CN(Cc2ccc(-c3cccc(S(C)(=O)=O)c3)cc2)S(=O)(=O)c2c(C)cc(C)cc2C)o1 | 0.352 |  | 
15 | Oc1ccc(Sc2ccc(O)cc2)cc1 | 68 |  | 
16 | CCCCOC(=O)c1ccc(O)cc1 [BUTYLPARABEN] | 66 |  | 
